Key:
[1] = biological target: T1, hP2X2/3 (Homo sapiens, UniProt P56373+Q9UBL9); assay: FLIPR intracellular calcium assay, hP2X2/3; format: cell-based; settings: human P2X2/3-TRex293 cells, agonist at EC75
T1 construct: host or cells: TRex293 (hP2X2/3-TRex293), doxycycline-induced
T1 sequence (P56373 1-397): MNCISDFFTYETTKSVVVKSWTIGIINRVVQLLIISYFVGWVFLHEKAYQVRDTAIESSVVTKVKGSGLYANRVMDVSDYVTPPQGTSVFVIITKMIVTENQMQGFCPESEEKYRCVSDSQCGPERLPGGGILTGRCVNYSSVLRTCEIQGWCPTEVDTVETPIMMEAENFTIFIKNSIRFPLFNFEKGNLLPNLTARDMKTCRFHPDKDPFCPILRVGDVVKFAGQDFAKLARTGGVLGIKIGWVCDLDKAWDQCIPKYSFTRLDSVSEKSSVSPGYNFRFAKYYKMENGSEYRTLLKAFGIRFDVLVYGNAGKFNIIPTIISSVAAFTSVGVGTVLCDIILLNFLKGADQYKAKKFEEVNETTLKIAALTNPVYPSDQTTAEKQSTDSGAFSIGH
T1 sequence (Q9UBL9 1-471): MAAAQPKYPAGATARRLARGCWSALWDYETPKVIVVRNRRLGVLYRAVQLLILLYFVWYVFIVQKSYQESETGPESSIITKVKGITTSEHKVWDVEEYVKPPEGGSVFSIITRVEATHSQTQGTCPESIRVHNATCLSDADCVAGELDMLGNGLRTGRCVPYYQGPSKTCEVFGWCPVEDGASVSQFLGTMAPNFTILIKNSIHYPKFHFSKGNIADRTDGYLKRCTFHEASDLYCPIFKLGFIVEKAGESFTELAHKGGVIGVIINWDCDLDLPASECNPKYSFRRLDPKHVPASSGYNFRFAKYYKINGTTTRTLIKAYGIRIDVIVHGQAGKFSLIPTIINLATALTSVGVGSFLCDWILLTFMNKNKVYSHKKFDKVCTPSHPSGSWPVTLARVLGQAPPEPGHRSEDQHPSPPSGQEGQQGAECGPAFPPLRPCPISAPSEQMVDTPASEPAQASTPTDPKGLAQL
Description: (§1) The FLIPR® assay utilizes cells which express human or rat P2X3 or P2X2/3 receptors. Recombinant cells expressing hP2X3 (Cat #6188) and hP2X2/3 (Cat #6179) were procured from Chantest Corp. Rat P2X2 (NCBI Accession No: U14414) was amplified by PCR from PC12 cDNA (a rat adrenal medulla cell line). The PCR product obtained containing the protein coding sequence of rat P2X2 was cloned into EcoRV-digested and dephosphorylated vector plRES-puro3 within the multiple cloning site (MCS). See, FIG. 1A.
(§2) (i) Intracellular Calcium Assay Protocol for Screening Compounds
(§3) Cryo-vial containing 6×10^6 cells (human P2X3-HEK/human P2X2/3-TRex293/rat P2X2/3-TRex293/rat P2X3 TRex-CHO) was thawed in a 37° C. water bath. Cells were suspended in 20 mL of respective cell plating media (See annexure for composition) in a 50 mL centrifuge tube. The cell viability was checked with the help of Trypan Blue dye. Upon washing, cells were plated in a black 384-well clear bottomed, sterile poly-D-lysine coated plate such that, each well contained 10,000 cells (15,000/well for hP2X3) in 30 μL cell plating media. The plate was incubated in a 5% CO2 incubator at 37° C. for 24 h.
(§4) The next day, prior to the assay, the cell plating media was removed from each well by decanting and gentle tapping. Thirty μL of FLIPR Calcium 4 dye solution was added to each well. The plate was incubated at 37° C. for 45 min (60 min for hP2X3). The plate was next equilibrated at room temperature for 15 minutes before placing it in a 384 well FLIPR for the assay.
(§5) Compounds were dissolved in DMSO and serially diluted following 11 point half log (3.16 fold) dilution with a starting concentration of 2 mM. Dilutions were mixed with assay buffer just before performing the assay.
(§6) Compounds were added to the respective wells of the assay-ready cell plate with the help of the FLIPR and fluorescence readings were captured for 5 min to observe any possible agonistic property of the compounds. The plate was then incubated at room temperature for 15 min. The cells were stimulated with respective agonist EC75 concentration and the fluorescence readings were captured for another 5 min by FLIPR. The difference in fluorescence readings in presence of the compounds were compared with that of the control wells (wells having no compound) to calculate the inhibitory potency of the compounds. The IC50 values of the compounds were determined using the Graph pad Prism software.
(§7) (ii) Cell Plating Media for hP2X3-HEK and hP2X2/3-TRex293 Cells • DMEM/F12 (1:1) HAM media (Invitrogen; Cat #11039) • 1×NEAA (Invitrogen; Cat #11140) • 25 mM HEPES (Invitrogen; Cat #15630) • 1 mM sodium pyruvate (Invitrogen; Cat #11360) • 10% tetracycline negative FBS (PAA; Cat #A15-209) • 1 μg/mL doxycycline (Clontech; Cat #63131) [for hP2X2/3-TRex293 cells only]
(§8) (v) Assay Buffer Composition • HBSS (Invitrogen Cat #14025) • 20 mM HEPES (Invitrogen Cat #15630) • 0.01% F127 (Sigma Cat #P2443) • 1.8 mM CaCl2 (Sigma Cat #C5080) • pH adjusted to 7.4
(§9) (vi) Dye Solution Composition • 1× FLIPR Calcium 4 dye in assay buffer (Molecular devices Cat #R8141) • 1.8 mM Probenecid (Sigma Cat #P8761) • pH adjusted to 7.4

[2] = biological target: T2, hP2X3 (Homo sapiens, UniProt P56373); assay: FLIPR intracellular calcium assay, hP2X3; format: cell-based; settings: human P2X3-HEK cells, agonist at EC75
T2 construct: host or cells: HEK (hP2X3-HEK)
T2 sequence (P56373 1-397): T1 sequence (P56373 1-397)
Description: as §1, §2, §3, §4, §5, §6, §7, §8, §9

| Molecule | IC50 [1] | IC50 [2] |
| --- | --- | --- |
| CC(=O)N1CCN(c2nc(N[C@H](C)c3cnc4ccccc4c3)c3nn(-c4ccccc4)cc3n2)CC1 [Example 9, 1-{4-[2-Phenyl-7-((R)-1-quinolin-3-yl-ethylamino)-2H-pyrazolo[4,3-d]pyrimidin-5-yl]-piperazin-1-yl} ethanone] | – | 0.1 to 1 µM |
| CCC(C)n1cc2nc(N3CCN(C(C)=O)CC3)nc(NC(C)(C)Cc3ccc(Cl)cc3)c2n1 (stereo not shown) [Example 6] | 1 to 10 µM | 0.1 to 1 µM |
| CC(=O)N1CCN(c2nc(N[C@H](C)c3cnc4ccccc4c3)c3c(cnn3CC3CCOCC3)n2)CC1 [Example 26] | – | 0.1 to 1 µM |
| CCC(C)n1ncc2nc(N3CCN(C(C)=O)CC3)nc(NC(C)c3ccc(-c4ccccn4)cc3)c21 (stereo not shown) [Example 53] | – | 0.1 to 1 µM |
| CC[C@H](C)n1ncc2nc(N3CCN(C(N)=O)CC3)nc(NC(C)c3cc4ccccn4n3)c21 (stereo partly shown) [Example 73] | – | 0.1 to 1 µM |
| CC(=O)N1CCN(c2nc(NC(C)c3cnc4ccccc4c3)c3nn(C(C)C)cc3n2)CC1 (stereo not shown) [Example 2] | – | 0.1 to 1 µM |
| CCn1ncc2nc(N3CCN(C(C)=O)CC3)nc(N[C@H](C)c3cnc4ccccc4c3)c21 [Example 50] | – | 0.1 to 1 µM |
| CCC(CC)n1ncc2nc(N3CCN(C(C)=O)CC3)nc(N[C@@H](C)c3cnc4ccc(F)cc4c3)c21 [Example 54] | – | 0.1 to 1 µM |
| CCC(C)n1ncc2nc(-c3cnn(CC(N)=O)c3)nc(N[C@@H](c3cnc4ccccc4c3)C3CC3)c21 (stereo partly shown) [Example 120] | – | 0.1 to 1 µM |
| CCC(CC)n1ncc2nc(N3CCN(C(C)=O)CC3)nc(NC(c3ccc(OCC4CC4)nc3)C3CC3)c21 (stereo not shown) [Example 63] | – | 0.1 to 1 µM |
| CC(=O)N1CCN(c2nc(N[C@@H](C)c3cnc4ccccc4c3)c3c(cnn3C(C)C)n2)CC1 [Example 17] | – | 0.1 to 1 µM |
| CCCCCCn1ncc2nc(N3CCN(C(C)=O)CC3)nc(N[C@H](C)c3cnc4ccccc4c3)c21 [Example 28] | – | 0.1 to 1 µM |
| CC(=O)N1CCN(c2nc(NC(C)c3cnc4ccccc4c3)c3nn(C(C)C)c(C(N)=O)c3n2)CC1 (stereo not shown) [Example 95] | – | 0.1 to 1 µM |
| CCC(C)n1ncc2nc(N3CCN(C)C(=O)C3)nc(N[C@H](C)c3cnc4ccccc4c3)c21 (stereo partly shown) [Example 20] | – | 0.1 to 1 µM |
| CC[C@H](C)n1ncc2nc(N3CCN(C(N)=O)CC3)nc(NC(C)c3n[nH]c4ccccc34)c21 (stereo partly shown) [Example 71] | – | 0.1 to 1 µM |
| CC[C@H](C)n1ncc2nc(N3CCN(C(N)=O)CC3)nc(NC(c3ccc4nccn4c3)C3CC3)c21 (stereo partly shown) [Example 67] | – | 0.1 to 1 µM |
| CCC(C)n1ncc2nc(-n3cnnn3)nc(N[C@@H](c3cnc4ccccc4c3)C3CC3)c21 (single isomer, unassigned) [Example 78] | – | 0.1 to 1 µM |
| CC(C)n1ncc2nc(N3CCNC(=O)C3)nc(N[C@H](C)c3cnc4ccccc4c3)c21 [Example 41] | – | 0.1 to 1 µM |
| 4-{1-sec-Butyl-7-[((R)-cyclopropyl-quinolin-3-yl-methyl)-amino]-1H-pyrazolo[4,3-d]pyrimidin-5-yl}-piperazine-1-sulfonic Acid Amide [Example 109] | – | 0.1 to 1 µM |
| CCC(CC)n1ncc2nc(N3CCN(C(C)=O)CC3)nc(N[C@@H](CC)c3cnc4ccccc4c3)c21 [Example 36] | – | 0.1 to 1 µM |

Second part, the molecule after the results:

| IC50 [1] | IC50 [2] | Molecule |
| --- | --- | --- |
| 0.1 to 1 µM | 0.001 to 0.1 µM | CCC(CC)n1ncc2nc(N3CCN(C(C)=O)CC3)nc(NC(C)c3ccc4sccc4c3)c21 (stereo not shown) [Example 57] |
| 0.1 to 1 µM | 0.001 to 0.1 µM | CC[C@H](C)n1ncc2nc(N3CCN(C(N)=O)CC3)nc(NC(C)c3cnc4cc(F)c(F)cc4c3)c21 (stereo partly shown) [Example 68] |
| 1 to 10 µM | 0.001 to 0.1 µM | COCC(C)n1ncc2nc(N3CCN(C(C)=O)CC3)nc(N[C@H](C)c3cnc4ccccc4c3)c21 (stereo partly shown) [Example 24] |
| 1 to 10 µM | 0.001 to 0.1 µM | CCC(C)n1nc(C2CC2)c2nc(N3CCN(C(C)=O)CC3)nc(N[C@H](C)c3cnc4ccccc4c3)c21 (stereo partly drawn) [Example 93, 1-{4-[1-sec-Butyl-3-cyclopropyl-7-((R)-1-quinolin-3-yl-ethylamino)-1H-pyrazolo[4,3-d]pyrimidin-5-yl]-piperazin-1-yl}-ethanone] |
| 1 to 10 µM | 0.001 to 0.1 µM | CC[C@@H](C)n1ncc2nc(N3CCN(C(C)=O)CC3)nc(N[C@H](C)c3cnc4ccccc4c3)c21 [Example 21] |
| 0.001 to 0.1 µM | 0.001 to 0.1 µM | CCC(C)n1ncc2nc(-c3cnn(C)c3)nc(N[C@@H](c3cnc4ccccc4c3)C3CC3)c21 (stereo partly shown) [Example 114] |
| 0.1 to 1 µM | 0.001 to 0.1 µM | CCC(CC)n1ncc2nc(-n3ccnn3)nc(N[C@@H](c3cnc4ccccc4c3)C3CC3)c21 [Example 74] |
| 0.1 to 1 µM | 0.001 to 0.1 µM | CCC(CC)n1ncc2nc(N3CCN(C(C)=O)CC3)nc(NC(C)c3cnc4ccc(F)cc4c3)c21 (stereo not shown) [Example 42] |
| 1 to 10 µM | 0.001 to 0.1 µM | CC(=O)N1CCN(c2nc(N[C@H](C)c3cnc4ccccc4c3)c3c(cnn3CC3CCC3)n2)CC1 [Example 32] |
| 1 to 10 µM | 0.001 to 0.1 µM | CCC(C)n1ncc2nc(C3CCN(C(N)=O)CC3)nc(N[C@@H](c3cnc4ccccc4c3)C3CC3)c21 (stereo partly shown) [Example 118] |
| 1 to 10 µM | 0.001 to 0.1 µM | CC(=O)N1CCN(c2nc(NC(C)c3cnc4ccccc4c3)c3c(cnn3C(C)C)n2)CC1 (stereo not shown) [Example 11] |
| 1 to 10 µM | 0.001 to 0.1 µM | CCC(C)n1ncc2nc(-c3nnc(C)o3)nc(N[C@@H](c3cnc4ccccc4c3)C3CC3)c21 (stereo partly drawn) [Example 125, [1-sec-Butyl-5-(5-methyl-[1,3,4]oxadiazol-2-yl)-1H-pyrazolo[4,3-d]pyrimidin-7-yl]-((R)-cyclopropyl-quinolin-3-yl-methyl)-amine] |
| 0.1 to 1 µM | 0.001 to 0.1 µM | CC(=O)N1CCN(c2nc(N[C@H](C)c3cnc4ccccc4c3)c3c(cnn3C(C)C(C)C)n2)CC1 (stereo partly shown) [Example 60] |
| – | 0.001 to 0.1 µM | CC(=O)N1CCN(c2nc(N[C@H](C)c3cnc4ccccc4c3)c3nn(C(C)C)c(C4CC4)c3n2)CC1 [Example 107] |
| – | 0.001 to 0.1 µM | CCC(CC)n1cc2nc(N3CCN(C(C)=O)CC3)nc(N[C@H](C)c3cnc4ccccc4c3)c2n1 [Example 8] |
| – | 0.001 to 0.1 µM | CC(=O)N1CCN(c2nc(N[C@H](C)c3cnc4ccccc4c3)c3c(cnn3C3CCOCC3)n2)CC1 [Example 27] |
| – | 0.001 to 0.1 µM | CCC(=O)N1CCN(c2nc(N[C@H](C)c3cnc4ccccc4c3)c3c(cnn3C(C)C)n2)CC1 [Example 37] |
| – | 0.001 to 0.1 µM | CC(=O)N1CCN(c2nc(NC(C)(C)Cc3ccc(Cl)cc3)c3nn(C(C)C)c(Br)c3n2)CC1 [Example 97] |
